Some test systems named below: 786-0 renal; LOX IMVI melanoma; OVCAR-3 ovarian; SF-295 CNS; SK-MEL-28 melanoma; SK-MEL-5 melanoma; SN12C renal; A498 renal; PC-3 prostate; DU-145 prostate.
Holding throughout (assay): growth of human tumour cells (NCI), 48 h

Structures are written as SMILES.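 The compound was tested at five concentrations on cells cultured in 96-well plates, with a 48-hour exposure period. GI50 = concentration required for 50% inhibition of growth. At the TGI there is no net growth.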

`CCOC(C[C@H](O[Si](C)(C)C(C)(C)C)[C@H]1COC(=S)S1)OCC`: the TGI with 786-0 renal, with LOX IMVI melanoma, in the assay on OVCAR-3 ovarian, in the assay with SF-295 CNS, in the assay with SK-MEL-28 melanoma and in the assay on SK-MEL-5 melanoma was > 100 µM in each case. Moreover, in the assay with SN12C renal, the TGI is > 100 µM.
Consider `COc1cc2ccnc3c2c(c1OC)-c1coc(SC)c1-3`, for which the TGI in the assay with 786-0 renal, in the assay with A498 renal, with LOX IMVI melanoma, in the assay with SF-295 CNS, with SK-MEL-5 melanoma and with SN12C renal was > 100 µM in each case.
Consider `CCCCCCCCCCCCCCCC(=O)OCC1OC(n2cc(F)c(=O)[nH]c2=O)C(N)C(O)C1O` (stereo unspecified), for which the TGI came to 35.2 µM with 786-0 renal; 61.3 µM with A498 renal; 33.1 µM in the assay with LOX IMVI melanoma; 9.72 µM in the assay on OVCAR-3 ovarian; 31.1 µM in the assay on SF-295 CNS; 31.1 µM in the assay on SK-MEL-28 melanoma. Also, the TGI with SK-MEL-5 melanoma is 33.1 µM; in the assay with SN12C renal it was 32.4 µM.
On to `COc1cc2c[n+](C)c3c4cc(OC)c(OC(C)C)cc4ccc3c2cc1OC`, for which the TGI in the assay with 786-0 renal was > 100 µM; in the assay with LOX IMVI melanoma, > 100 µM; with OVCAR-3 ovarian it was 63.8 µM; in the assay with SF-295 CNS, > 100 µM; with SK-MEL-28 melanoma it was > 100 µM; with SK-MEL-5 melanoma, > 100 µM. Moreover, the TGI with SN12C renal was > 100 µM.
With `CCCCCCC[CH2][Sn]([CH2]CCCCCCC)([O]c1cccc2cccnc12)[O]c1cccc2cccnc12`, the GI50 was 1.49 µM in the assay on 786-0 renal; 2.62 µM in the assay on A498 renal; 1.77 µM in the assay on LOX IMVI melanoma; 1.85 µM in the assay on OVCAR-3 ovarian; 2.38 µM in the assay with SF-295 CNS; 1.65 µM with SK-MEL-5 melanoma. Besides, the GI50 with SN12C renal was 1.96 µM. The TGI stood at 2.84 µM with 786-0 renal; 5.85 µM with A498 renal; 3.64 µM in the assay with LOX IMVI melanoma; 6.62 µM with OVCAR-3 ovarian; 6.08 µM in the assay on SF-295 CNS; 3.21 µM in the assay on SK-MEL-5 melanoma. Moreover, the TGI in the assay with SN12C renal is 4.32 µM.
For `CN(C(=O)C12C3C4C1C1C2C3C41C(N)=O)C(C)(C)C` (stereo unspecified), the TGI in the assay with 786-0 renal, with A498 renal, in the assay with OVCAR-3 ovarian, with SF-295 CNS, in the assay on SK-MEL-28 melanoma and with SK-MEL-5 melanoma was > 100 µM throughout. The TGI in the assay with SN12C renal was > 100 µM.
With `CC1(C)C2CCC13C(=O)C1OC3(C2)C2C(=O)c3ccccc3C(=O)C12` (stereo unspecified), the GI50 in the assay on 786-0 renal is > 100 µM; in the assay on PC-3 prostate, 77.2 µM; with SK-MEL-28 melanoma, > 100 µM; in the assay with SN12C renal, > 100 µM. In addition, the TGI in the assay with 786-0 renal, in the assay with PC-3 prostate, with SK-MEL-28 melanoma and in the assay on SN12C renal was > 100 µM each time.
On to `CC1CCC/C1=C(/I)C(=O)c1ccccc1` (stereo unspecified), for which the TGI is > 100 µM in the assay with 786-0 renal; > 100 µM in the assay with DU-145 prostate; 92.7 µM with LOX IMVI melanoma; > 100 µM in the assay with PC-3 prostate; > 100 µM with SF-295 CNS; > 100 µM with SK-MEL-28 melanoma. For the same molecule, the TGI in the assay on SK-MEL-5 melanoma is 69.5 µM; in the assay with SN12C renal, > 100 µM.
Regarding `O=[N+]([O-])c1ccc(-n2nnc(C3=NCCN3)c2-c2ccccc2)cc1`, the TGI in the assay with 786-0 renal, in the assay on A498 renal, with LOX IMVI melanoma, in the assay with OVCAR-3 ovarian, with SF-295 CNS and with SK-MEL-28 melanoma was > 100 µM throughout. Also, the TGI in the assay with SK-MEL-5 melanoma and in the assay with SN12C renal was > 100 µM each time.
As to `C=C1CC2OC(=O)C(=C)C2C(O)C2C(=C)CCC12` (stereo unspecified), the TGI with 786-0 renal was 26.7 µM; in the assay with A498 renal, 17.5 µM; in the assay with OVCAR-3 ovarian, 22.3 µM; with SF-295 CNS, 22.8 µM; in the assay with SK-MEL-28 melanoma it was 21 µM; in the assay with SK-MEL-5 melanoma, 25.3 µM. Moreover, the TGI with SN12C renal turned out to be 18.1 µM.
Regarding `N/N=C(/C(=O)Nc1cccc(Cl)c1)C(C(=O)c1ccc(O)cc1O)C1OC(=O)c2ccccc21` (stereo unspecified), the TGI in the assay with 786-0 renal, with A498 renal, in the assay on LOX IMVI melanoma, with OVCAR-3 ovarian, in the assay with SF-295 CNS and in the assay with SK-MEL-28 melanoma was > 100 µM each time. For the same molecule, the TGI in the assay with SK-MEL-5 melanoma and in the assay on SN12C renal was > 100 µM in each case.
For the molecule `CC(=O)[CH-]C(=O)c1ccccc1.CC(=O)[CH-]C(=O)c1ccccc1.CC[O-].CC[O-].[Hf+4]`, the GI50 in the assay on 786-0 renal, with A498 renal, in the assay on LOX IMVI melanoma, in the assay on OVCAR-3 ovarian, with SF-295 CNS and in the assay on SK-MEL-28 melanoma was > 100 µM each time. Besides, the GI50 in the assay with SK-MEL-5 melanoma and in the assay with SN12C renal was > 100 µM throughout. The TGI in the assay with 786-0 renal, in the assay on A498 renal, with LOX IMVI melanoma, in the assay on OVCAR-3 ovarian, with SF-295 CNS and with SK-MEL-28 melanoma was > 100 µM throughout. The TGI in the assay on SK-MEL-5 melanoma and with SN12C renal was > 100 µM in each case.
For the molecule `Cc1nc(Nc2ccccc2)sc1C(=O)CC(=O)C(=O)Nc1c(C(C)C)cccc1C(C)C`, the TGI in the assay on 786-0 renal, in the assay with LOX IMVI melanoma, with OVCAR-3 ovarian, in the assay with SF-295 CNS, with SK-MEL-28 melanoma and in the assay with SK-MEL-5 melanoma was > 100 µM in each case. Also, the TGI in the assay on SN12C renal is > 100 µM.
As for `Cc1ccccc1C1OC(=O)c2ccc3ccccc3c21` (stereo unspecified), the TGI is 18.9 µM with 786-0 renal; 8.51 µM with A498 renal; 7.45 µM in the assay with LOX IMVI melanoma; 16.2 µM with OVCAR-3 ovarian; > 31.6 µM with SF-295 CNS; 10.1 µM in the assay on SK-MEL-28 melanoma. Also, the TGI with SK-MEL-5 melanoma is 13 µM; with SN12C renal, 18.3 µM.
As for `CCOC(=O)CC[C@H](NC(=O)c1nc[nH]c1[N+](=O)[O-])C(=O)OCC`, the TGI in the assay on 786-0 renal, in the assay with A498 renal, in the assay with LOX IMVI melanoma, in the assay on OVCAR-3 ovarian, with SF-295 CNS and with SK-MEL-28 melanoma was > 100 µM each time. Moreover, in the assay with SN12C renal, the TGI was > 100 µM.
